Experimental data published in patent publication US20190359653A1, “SELECTIVE PEPTIDE INHIBITORS OF FRIZZLED” (Genentech, Inc., priority 2016, published 2019).
Entries after “also recorded” stand apart in the source; their conditions may differ. Peptide text beside a SMILES is read from it. * marks the point of attachment. 5FAM = O=C1OC2(c3ccc(O)cc3Oc3cc(O)ccc32)c2ccc(C(=O)*)cc21

How the values were obtained:
FZD CRD-Fc proteins = experiment: fluorescence size-exclusion chromatography (FSEC) with FZD CRD-Fc proteins; type: binding; details: 1 μM peptide, 250 nM FZD CRD-Fc, overnight at 4° C.; FZD1, FZD2 and FZD7 CRD-Fc
Experimental: (§1) Fluorescence size-exclusion chromatography (FSEC) experiments were run using an AKTA FPLC system (General Electric Company) with UNICORN software package (version 5.31). Samples were resolved using a SEC3000 or SEC2000 (Phenomenex; Torrence, Calif.) column at 0.5 mL/min in phosphate buffer. Fluorescence was monitored using a FP-2020 Plus fluorescence detector (Jasco Analytical Instruments, Easton, Md.) in normal mode (excitation/emission, […]; gain=100; STD=32). All samples were prepared with a final DMSO concentration of 1% and incubated overnight at 4° C. prior to sample separation. FZD CRD-Fc samples were kept at ˜250 nM in the presence of excess 5FAM labeled peptide (1 μM). […]
Selective targeting of the FZD7 receptor subclass was also observed chromatographically. […] See FIGS. 4A and 4B, which provide representative fluorescence traces of 1 μM 5FAM-Fz7-21 and 1 μM 5FAM-Fz7-21S, respectively, incubated with various FZD CRD-Fc proteins (250 nM) overnight at 4° C. prior to analysis by FSEC. […] In FIG. 24A, molecular weight (MW) standards analyzed by UV absorption were plotted as a function of elution volume (Ve) over void volume (Vo). […] Measured values represent the mean±standard deviation (SD) of three independent experiments. […] Binding to recombinant FZD3 and 6 CRDs could not be assessed due to challenges with the expression of these proteins. […]

FZD CRD-Fc = experiment: binding of 5FAM peptides to the FZD CRD-Fc panel; details: any members of the FZD CRD family
Experimental: Control experiments using 5FAM-Fz7-21S were performed in parallel. 5FAM-Fz7-21 or 5FAM-Fz721S was incubated with each of the aforementioned FZD CRD-Fcs overnight at 4° C. in PBS and resolved via SEC.
In FIGS. 3A-3I, 5FAM-Fz7-21 or 5FAM-Fz7-21S (50 nM in PBS) was incubated with increasing concentration of FZD CRD-Fc (2-fold serial dilutions), and fluorescence intensity was measured using either a Monolith NT.115 or NT.115Pico instrument (NanoTemper Technologies). EC50 values represent the 95% confidence interval of at least three independent experiments, excepting hFZD1 CRD-Fc+5FAM-Fz7-21S, which was done twice. EC50 ovalues were calculated with Prism Graphpad using the Log(agonist) vs. response [variable slope (four parameters) function: Y=Bottom+(Top-Bottom)/(1+10^((Log EC−X)*HillSlope))]. Plotted values represent the mean±s.e.m.

[1] = tested on: human sFRP1, sFRP2, sFRP3, sFRP4, or sFRP5; experiment: FSEC with secreted Frizzled-related proteins; type: binding; details: sFRP ~250 nM, peptide 10 μM
Experimental: as §1, with “μM). Human secreted Frizzled-related proteins were maintained at ˜250 nM in the presence of excess 5FAM-labeled peptide (10 μM).” for “μM).”
For FIGS. 4C and 5C, values represent the mean±s.e.m. of three independent experiments. […] Samples were resolved using a SEC3000 column (Phenomenex; Torrence, Calif.) at 0.5 mL/min in phosphate buffer saline (PBS) and fluorescence was monitored with an FP-2020 Plus fluorescence detector (Jasco Analytical Instruments, Easton, Md.) using normal mode (excitation/emission […]); gain=100; STD=32. […] Molecular weights were determined by standards (BioRad catalogue number, 151-1901) run prior to sample runs.

[2] = tested on: Wnt3a-mediated β-catenin signaling in HEK293-TB cells; type: cell-based
[3] = tested on: Wnt5a binding to FZD1 CRD, FZD2 CRD, and FZD7 CRD; experiment: ELISA of biotinylated Wnt5a binding to FZD CRD-Fc; details: FIGS. 22A, 22B
Experimental: (§2) 384-well Maxisorp plates (cat. no. 464718; Thermo Scientific) were incubated with 30 μL of Neutravidin (cat. no. 31000, Thermo Scientific; 2 μg/mL in PBS) overnight at 4° C. Plates were then washed with PBST and blocked with PBS/1% BSA for 1 hour at RT and then washed with PBST prior to further processing. The binding assay was conducted in 96 well plates (cat no. 83007-374; VWR) which were blocked with PBS/1% BSA overnight at 4° C. hFZD4 CRD-Fc or hFZD7 CRD-Fc (63 ng/mL) were incubated with either Bio-Wnt3a (25 ng/mL) or Bio-Wnt5a (50 ng/mL) in the presence of 4-fold serial dilutions of the indicated peptide in PBS overnight at 4° C. All assays included hFZD9 CRD-mIgG2A protein as a negative control. hFZD7 CRD-His was suspended in 150 mM NaCl, 50 mM Tris-HCl at pH 7.5 and when used in assays an equal volume of the same buffer control was used. The binding assay mixtures were transferred to the Neutravidin coated plates and incubated for ˜1 h at RT. The wells were then washed with PBST, incubated with anti-hIgG1-HRP (1:10,000 suspended in PBS supplemented with 1% BSA; cat. no. A18817, Invitrogen), and washed again with PBST. The signal was developed with the addition of TMB reagent (following the manufacturer's recommendation; KPL; 50-76-00) for 15 min prior to the addition of an equal volume of 1 M phosphoric acid for 10 min Absorbance was measured at 450 nm using a Tekan M1000 plate reader. Values were collected and plotted using Prism Graphpad software. All assay conditions using peptides were at 1% DMSO final concentration. […]
(§3) Briefly, the assays were performed using (a) FZD1 CRD-Fc, (b) FZD2 CRD-Fc, (c) FZD4 CRD-Fc, or (d) FZD7 CRD-Fc as the capture reagent and biotinylated-Wnt5a as the detection reagent. […] Streptavidin-HRP was used to detect biotinylated Wnt5a, and HRP activity was measured as a function of chemiluminescence detection at 428 nm. […]

[4] = tested on: Wnt3a-mediated stabilization of β-catenin in mouse L cells; experiment: in-cell western of β-catenin protein in L cells treated with Wnt3a; type: cell-based
Experimental: DMSO controls were performed in parallel. Following treatment, the L-cells were fixed, permeabilized, probed with fluorescently labeled anti-β-catenin antibodies, and observed via in-cell western assay (i.e., as described in Hannoush, R. N. (2008) PLoS One 3, e3498) to assess β-catenin protein levels. The values in Table 7 are averages of at least 3 independent replicates, ±standard deviation.

[5] = molecular target: T1, Wnt5a binding to FZD4 CRD (Homo sapiens, UniProt Q9ULV1); experiment: ELISA of biotinylated Wnt5a binding to FZD CRD-Fc; details: peptide 0-10 μM
T1 construct: hFZD4 CRD-Fc (cat no. 5847-FZ); purchased R&D systems 5847-FZ
T1 sequence (Q9ULV1 40-161 limits assumed): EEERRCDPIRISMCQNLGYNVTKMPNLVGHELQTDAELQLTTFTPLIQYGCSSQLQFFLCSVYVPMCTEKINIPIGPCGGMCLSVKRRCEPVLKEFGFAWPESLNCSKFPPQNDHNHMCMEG
Experimental: as §2, §3

[6] = tested on: receptor-independent β-catenin signaling in 6-BIO-treated HEK293-TB cells; experiment: epistasis study, HEK293-TB cells stimulated with 6-BIO; type: cell-based; details: 10 μM 6-BIO, 6 hr; FIG. 2E
[7] = molecular target: T2, Wnt3a binding to FZD4 CRD (Homo sapiens, UniProt Q9ULV1); experiment: ELISA of biotinylated Wnt3a binding to FZD CRD-Fc; details: peptide 0-10 μM
T2 construct: hFZD4 CRD-Fc (cat no. 5847-FZ); purchased R&D systems 5847-FZ
T2 sequence (Q9ULV1 40-161 limits assumed): T1 sequence (Q9ULV1 40-161 limits assumed)
Experimental: 384-well Maxisorp plates (cat. no. 464718; Thermo Scientific) were incubated with 30 μL of Neutravidin (cat. no. 31000, Thermo Scientific; 2 μg/mL in PBS) overnight at 4° C. Plates were then washed with PBST and blocked with PBS/1% BSA for 1 hour at RT and then washed with PBST prior to further processing. The binding assay was conducted in 96 well plates (cat no. 83007-374; VWR) which were blocked with PBS/1% BSA overnight at 4° C. hFZD4 CRD-Fc or hFZD7 CRD-Fc (63 ng/mL) were incubated with either Bio-Wnt3a (25 ng/mL) or Bio-Wnt5a (50 ng/mL) in the presence of 4-fold serial dilutions of the indicated peptide in PBS overnight at 4° C. All assays included hFZD9 CRD-mIgG2A protein as a negative control. hFZD7 CRD-His was suspended in 150 mM NaCl, 50 mM Tris-HCl at pH 7.5 and when used in assays an equal volume of the same buffer control was used. The binding assay mixtures were transferred to the Neutravidin coated plates and incubated for ˜1 h at RT. The wells were then washed with PBST, incubated with anti-hIgG1-HRP (1:10,000 suspended in PBS supplemented with 1% BSA; cat. no. A18817, Invitrogen), and washed again with PBST. The signal was developed with the addition of TMB reagent (following the manufacturer's recommendation; KPL; 50-76-00) for 15 min prior to the addition of an equal volume of 1 M phosphoric acid for 10 min Absorbance was measured at 450 nm using a Tekan M1000 plate reader. Values were collected and plotted using Prism Graphpad software. All assay conditions using peptides were at 1% DMSO final concentration.
Without being bound be theory, the substantial conformational change induced by dFz7-21 on hFZD7 CRD, as exemplified by the altered geometry of the lipid binding cavity, may facilitate the accommodation of two Wnt molecules simultaneously onto the hFZD7 CRD dimer (FIG. 4e-h).
Similar results were observed using Wnt3a. […] Binding of Wnt3a to FZD1 CRD, FZD2 CRD, and FZD7 CRD increased in the presence of dFz7-21 at concentrations below about 0.5 μM (FIG. 22E), with the most binding seen in the presence of 0.01 μM-0.05 μM dFz7-21. […] Fz7-21S had no effect on Binding of Wnt3a to any of the FZD CRDs tested (FIG. 22F).

hFZD7 CRD-His = molecular target: T3, hFZD7 CRD-His (Homo sapiens, UniProt O75084); experiment: SEC-MALS of hFZD7 CRD-His incubated with peptide; type: binding
T3 construct: hFZD7 CRD-His [Gln33-Gly168] was expressed as a secreted protein in Trichoplusia ni cells expressing EndoH; made in house; host or cells: Trichoplusia ni cells expressing EndoH, treated with Kifunensine (baculovirus)
Experimental: Samples were resolved by a Superdex S200 3.2/300 column (General Electric Healthcare Life Science, Pittsburgh, Pa.; cat. no. 28990946) at 0.15 mL/min in 150 mM NaCl, 50 mM Tris-HCl pH 7.5 buffer with 1% DMSO final concentration. Runs were performed on a 1260 infinity HPLC (Agilent Technology, Santa Clara, Calif.) connected to a Dawn Heleos-II multi-angle static Light Scattering (MALS) detector and a Optilab T-rEX differential Refractive Index (dRI) detector (Wyatt Technologies, Santa Barbara, Calif.).
Samples were resolved by a Superdex S200 3.2/300 column (General Electric Healthcare Life Science, Pittsburgh, Pa.; 28990946) at a 0.15 mL/min in 150 mM NaCl, 50 mM Tris-HCl pH 7.5 buffer with 1% DMSO final concentration. Column was connected to a 1260 infinity HPLC (Agilent Technology, Santa Clara, Calif.) connected to a Dawn Heleos-II Multi-Angle static Light Scattering (MALS) detector and the Optilab T-rEX differential Refractive Index (dRI) detectors (Wyatt Technologies, Santa Barbara, Calif.).

| Compound | complex with FZD CRD-Fc resolved by FSEC (FZD CRD-Fc proteins) | binding (FZD CRD-Fc) | binding to sFRPs by FSEC [1] | HEK293S-TB % Remaining Activity ([2]; measured at 100 μM peptide, mean ± standard deviation) [%] | IC50 ([2]; read-out: IC50, Wnt3a-stimulated β-catenin signaling) [nM] | peptide concentration with the most Wnt5a binding [3] [µM] | L CELLS % Remaining Activity ([4]; measured at 11.11 μM of peptide) | Wnt3a-mediated stabilization of β-catenin ([4]; mouse L cells) | IC50 ([4]; β-catenin by immunofluorescence, Wnt3a 2.5 nM, 5 hours, mean ± standard deviation) [nM] | effect on Wnt5a binding to FZD4 CRD [5] | inhibition of Wnt signaling in 6-BIO-treated cells [6] | effect on Wnt3a binding to FZD4 CRD [7] | ΔMW (kDa) (hFZD7 CRD-His; 1:5, relative to the DMSO control) | homodimerization or oligomerization of hFZD7 CRD-His (hFZD7 CRD-His; concentration-dependent) | MW (kDa) (hFZD7 CRD-His; hFZD7 CRD 15.8 μM, protein:peptide 1:1, 2 h) | MW (kDa) (hFZD7 CRD-His; protein:peptide 1:5) | MW (kDa) (hFZD7 CRD-His; protein:peptide 1:10) |
| --- | --- | --- | --- | --- | --- | --- | --- | --- | --- | --- | --- | --- | --- | --- | --- | --- | --- |
| CSCC[C@H](NC(=O)[C@@H](NC(=O)[C@H](Cc1c[nH]cn1)NC(=O)[C@H](CO)NC(=O)[C@H](Cc1c[nH]c2ccccc12)NC(=O)[C@H](Cc1ccccc1)NC(=O)[C@H](CCC(=O)O)NC(=O)[C@H](CC(C)C)NC(=O)[C@H](CC(=O)O)NC(=O)[C@H](CC(=O)O)NC(=O)[C@H](CO)NC(=O)[C@@H]1CCCN1C(=O)[C@H](CC(C)C)NC(=O)c1ccc2c(c1)C(=O)OC21c2ccc(O)cc2Oc2cc(O)ccc21)C(C)C)C(=O)N[C@@H](Cc1ccc(O)cc1)C(N)=O [5FAM-Fz7-21S] (5FAM-LPSDDLEFWSHVMY-NH2; N-terminus and C-terminus assumed) | no complex was observed | no detectable binding | not found to bind |  |  |  |  |  |  |  |  |  |  |  |  |  |  |
| LPSDDLEFWCHVMY [Fz7-21] |  |  |  | 5.15 ± 2.88 | 90 to 100 | 0.1 | 50.98^G ± 3.76% | blocked | 50 ± 30 | did not show any effect; also recorded: no such effect | Neither Fz7-21 nor Fz7-21S inhibited | did not show any effect; also recorded: Neither Fz7-21 nor dFz7-21 had any effect | 6.4 | induced homodimerization or oligomerization | 21.9 | 27.3 | 32 |
